Activity calls are given as the source filed them. No rule for the calls is given here.
Test system: CCRIS mutagenicity, Ames/micronucleus/aberration tests
Assay: CCRIS mutagenicity studies
[1] = Test System: AMES SALMONELLA TYPHIMURIUM, Strain/Indicator: TA98, Metabolic Activation: NONE, Method: STANDARD PLATE
[2] = Test System: AMES SALMONELLA TYPHIMURIUM, Strain/Indicator: TA98, Metabolic Activation: RAT, LIVER, S-9, AROCLOR 1254, Method: PREINCUBATION
[3] = Test System: AMES SALMONELLA TYPHIMURIUM, Strain/Indicator: TA100, Metabolic Activation: RAT, LIVER, S-9, AROCLOR 1254, Method: PREINCUBATION

Measured: mutagenic call

OC[C@H]1OC(O[C@H]2[C@H](O)[C@@H](O)C(O[C@H]3[C@H](O)[C@@H](O)[C@@H](O)O[C@@H]3CO)O[C@@H]2CO)[C@H](O)[C@@H](O)[C@@H]1O (some centres undefined)
inactive: [1] inactive; negative | Test System: AMES SALMONELLA TYPHIMURIUM, Strain/Indicator: TA98, Metabolic Activation: RAT, LIVER, S-9, Method: STANDARD PLATE inactive; negative | Test System: AMES SALMONELLA TYPHIMURIUM, Strain/Indicator: TA100, Metabolic Activation: NONE, Method: STANDARD PLATE inactive; negative | Test System: AMES SALMONELLA TYPHIMURIUM, Strain/Indicator: TA100, Metabolic Activation: RAT, LIVER, S-9, Method: STANDARD PLATE inactive; negative | Test System: AMES SALMONELLA TYPHIMURIUM, Strain/Indicator: TA1535, Metabolic Activation: NONE, Method: STANDARD PLATE inactive; negative | Test System: AMES SALMONELLA TYPHIMURIUM, Strain/Indicator: TA1535, Metabolic Activation: RAT, LIVER, S-9, Method: STANDARD PLATE inactive; negative | Test System: AMES SALMONELLA TYPHIMURIUM, Strain/Indicator: TA1537, Metabolic Activation: NONE, Method: STANDARD PLATE inactive; negative | Test System: AMES SALMONELLA TYPHIMURIUM, Strain/Indicator: TA1537, Metabolic Activation: RAT, LIVER, S-9, Method: STANDARD PLATE inactive; negative | Test System: E. COLI, Strain/Indicator: WP2 UVRA, Metabolic Activation: NONE, Method: STANDARD PLATE inactive; negative | Test System: E. COLI, Strain/Indicator: WP2 UVRA, Metabolic Activation: RAT, LIVER, S-9, Method: STANDARD PLATE inactive; negative

Clc1cc(Cl)c(Cl)c(Cl)c1Cl
inactive: Test System: AMES SALMONELLA TYPHIMURIUM, Strain/Indicator: TA98, Metabolic Activation: HAMSTER, LIVER, S-9, AROCLOR 1254, Method: PREINCUBATION inactive; negative | Test System: AMES SALMONELLA TYPHIMURIUM, Strain/Indicator: TA98, Metabolic Activation: NONE, Method: PREINCUBATION inactive; negative | [2] inactive; negative | Test System: AMES SALMONELLA TYPHIMURIUM, Strain/Indicator: TA100, Metabolic Activation: HAMSTER, LIVER, S-9, AROCLOR 1254, Method: PREINCUBATION inactive; negative | Test System: AMES SALMONELLA TYPHIMURIUM, Strain/Indicator: TA100, Metabolic Activation: NONE, Method: PREINCUBATION inactive; negative | [3] inactive; negative | Test System: AMES SALMONELLA TYPHIMURIUM, Strain/Indicator: TA1535, Metabolic Activation: HAMSTER, LIVER, S-9, AROCLOR 1254, Method: PREINCUBATION inactive; negative | Test System: AMES SALMONELLA TYPHIMURIUM, Strain/Indicator: TA1535, Metabolic Activation: NONE, Method: PREINCUBATION inactive; negative | Test System: AMES SALMONELLA TYPHIMURIUM, Strain/Indicator: TA1535, Metabolic Activation: RAT, LIVER, S-9, AROCLOR 1254, Method: PREINCUBATION inactive; negative | Test System: AMES SALMONELLA TYPHIMURIUM, Strain/Indicator: TA1537, Metabolic Activation: HAMSTER, LIVER, S-9, AROCLOR 1254, Method: PREINCUBATION inactive; negative | Test System: AMES SALMONELLA TYPHIMURIUM, Strain/Indicator: TA1537, Metabolic Activation: NONE, Method: PREINCUBATION inactive; negative | Test System: AMES SALMONELLA TYPHIMURIUM, Strain/Indicator: TA1537, Metabolic Activation: RAT, LIVER, S-9, AROCLOR 1254, Method: PREINCUBATION inactive; negative

Fc1ccc2c3c(cccc13)-c1c-2ccc2ccccc12
active: Test System: AMES SALMONELLA TYPHIMURIUM, Strain/Indicator: TA97A, Metabolic Activation: RAT, LIVER, S-9, AROCLOR 1254, Method: PREINCUBATION active; positive | [2] active; positive | [3] active; positive

CC(=O)Nc1ccc2c3c(cccc13)-c1ccc(O)cc1-2
active: [1] active; positive | Test System: AMES SALMONELLA TYPHIMURIUM, Strain/Indicator: TA98, Metabolic Activation: RAT, LIVER, S-9, AROCLOR 1254, Method: STANDARD PLATE active; positive

C=C1[C@@H](C)[C@H]2[C@H](Cc3ccccc3)NC(=O)[C@]23OC(=O)/C=C/[C@H](O)CCC[C@@H](C)C/C=C/[C@H]3[C@@H]1O
active: End Point: In vivo micronucleus, Test System: Micronucleated, binucleated and multinucleated hepatocytes, Species: Mouse, Strain/Sex: ddY/Male, Route: Intravenous active; positive for micronucleated cells when agent administered before and after parti

CC(/C=C(/C#N)c1ccc(Br)cc1)C(c1ccccc1)C(C#N)c1ccc(Br)cc1 (centres undefined)
inactive: Test System: AMES SALMONELLA TYPHIMURIUM, Strain/Indicator: TA97A, Metabolic Activation: NONE, Method: STANDARD PLATE inactive; negative
